The target in the experiment is T1, human VDR (Homo sapiens, UniProt P11473).
T1 sequence (P11473 1-427): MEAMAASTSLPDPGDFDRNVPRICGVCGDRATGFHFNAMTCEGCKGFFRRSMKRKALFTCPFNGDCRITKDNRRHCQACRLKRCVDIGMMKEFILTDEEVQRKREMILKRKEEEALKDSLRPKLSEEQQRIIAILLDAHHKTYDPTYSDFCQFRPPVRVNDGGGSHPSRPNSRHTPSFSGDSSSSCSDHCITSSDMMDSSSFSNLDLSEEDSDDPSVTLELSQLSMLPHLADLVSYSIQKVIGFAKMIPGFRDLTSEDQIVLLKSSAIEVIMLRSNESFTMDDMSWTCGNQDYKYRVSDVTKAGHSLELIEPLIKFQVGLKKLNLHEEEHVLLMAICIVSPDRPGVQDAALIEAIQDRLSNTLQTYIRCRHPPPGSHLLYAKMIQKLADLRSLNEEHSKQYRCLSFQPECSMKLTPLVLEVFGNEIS
T1 sequence (P19793 1-462 partner): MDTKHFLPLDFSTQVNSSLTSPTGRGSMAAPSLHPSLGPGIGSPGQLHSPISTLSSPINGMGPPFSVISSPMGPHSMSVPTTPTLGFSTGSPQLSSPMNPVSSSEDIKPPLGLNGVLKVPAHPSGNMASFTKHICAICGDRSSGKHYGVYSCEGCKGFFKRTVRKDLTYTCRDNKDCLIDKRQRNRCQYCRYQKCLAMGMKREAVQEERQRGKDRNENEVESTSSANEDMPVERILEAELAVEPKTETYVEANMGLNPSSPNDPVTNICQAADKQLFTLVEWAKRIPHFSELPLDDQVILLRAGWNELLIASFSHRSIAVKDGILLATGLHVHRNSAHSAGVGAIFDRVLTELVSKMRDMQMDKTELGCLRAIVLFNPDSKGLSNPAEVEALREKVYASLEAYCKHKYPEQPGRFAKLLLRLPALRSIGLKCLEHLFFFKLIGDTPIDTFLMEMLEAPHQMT
The experiment is described as follows: Evaluation of VDR transcription activity in human osteoblasts (HOS cells), luciferase reporter. The note with it: Activity (EC50, VDR transcription activity), HOS cells transfected with human VDR, human RXRα and DR3 luciferase reporter; 21 hours. A general note: Reporter assays use an easily measured gene product as a stand-in for the process of interest.

A value given as a limit tells only on which side of the number the result lay.

The term EC50 denotes the concentration needed to bring the measured effect to its halfway point. The low end stands for higher potency in that assay, the high end for lower potency in that assay. `C=C1/C(=C\C=C2/CCC[C@]3(C)[C@@H]([C@H](C)CN4CCC(O)(C(F)(F)F)CC4)CC[C@@H]23)C[C@@H](O)C[C@@H]1O` [Compound C001, (1R,3S,Z)-5-(2-((1R,3aS,7aR,E)-1-((S)-1-(4-hydroxy-4-(trifluoromethyl)piperidin-1-yl)propan-2-yl)-7a-methyloctahydro-4H-inden-4-ylidene)ethylidene)-4-methylenecyclohexane-1,3-diol] registered an EC50 of 1 to 10 nM.
For `C=C1/C(=C\C=C2/CCC[C@]3(C)[C@@H]([C@H](C)CN4CCOC(C(F)(F)F)C4)CC[C@@H]23)C[C@@H](O)[C@H](C)[C@@H]1O` (single isomer, unassigned) [Compound D009a], the EC50 lay in the range of 1 to 10 nM.
`C[C@H](CCN1CC[C@H](C(C)(F)F)C1)[C@H]1CC[C@H]2/C(=C/C=C3C[C@@H](O)C[C@H](O)C3)CCC[C@]12C` [Compound B083, (1R,3R)-5-(2-((1R,3aS,7aR,E)-1-((R)-4-((S)-3-(1,1-difluoroethyl)pyrrolidin-1-yl)butan-2-yl)-7a-methyloctahydro-4H-inden-4-ylidene)ethylidene)cyclohexane-1,3-diol] had a half-maximal effective concentration (EC50) of 10 to 100 nM.
In the case of `C=C1[C@H](O)CC(=C/C=C2\CCC[C@]3(C)[C@@H]([C@H](C)CCN4CC[C@@H](C(C)(F)F)C4)CC[C@@H]23)C[C@H]1O` [Compound B093, (1R,3R)-5-(2-((1R,3aS,7aR,E)-1-((R)-4-((R)-3-(1,1-difluoroethyl)pyrrolidin-1-yl)butan-2-yl)-7a-methyloctahydro-4H-inden-4-ylidene)ethylidene)-2-methylenecyclohexane-1,3-diol], the EC50 lay within 1 to 10 nM.
`C[C@H](CN1CC(O)(C(F)(F)F)C1)[C@H]1CC[C@H]2/C(=C/C=C3C[C@@H](O)C[C@H](O)C3)CCC[C@]12C` [Compound A010, (1R,3R)-5-(2-((1R,3aS,7aR,E)-1-((S)-1-(3-hydroxy-3-(trifluoromethyl)azetidin-1-yl)propan-2-yl)-7a-methyloctahydro-4H-inden-4-ylidene)ethylidene)cyclohexane-1,3-diol] registered an EC50 of 1 to 10 nM.
`CCC1(O)CCCN(C[C@@H](C)[C@H]2CC[C@H]3/C(=C/C=C4C[C@@H](O)C[C@H](O)C4)CCC[C@]23C)C1` (single isomer, unassigned) [Compound C044a] returned a concentration for a half-maximal effect (EC50) of 10 to 100 nM.
`C=C1/C(=C\C=C2/CCC[C@]3(C)[C@@H]([C@@H](C)CN4CC[C@@H](C(F)F)C4)CC[C@@H]23)C[C@@H](O)C[C@@H]1O` [Compound B096, (1R,3S,Z)-5-(2-((1R,3aS,7aR,E)-1-((R)-1-((R)-3-(difluoromethyl)pyrrolidin-1-yl)propan-2-yl)-7a-methyloctahydro-4H-inden-4-ylidene)ethylidene)-4-methylenecyclohexane-1,3-diol] showed an EC50 of 1 to 10 nM.
In the case of `C=C1/C(=C\C=C2/CCC[C@]3(C)[C@@H]([C@H](C)CN4CC[C@@H](C(F)F)C4)CC[C@@H]23)C[C@@H](O)[C@H](C)[C@@H]1O` [Compound B025, (1R,2S,3 S,Z)-5-(2-((1R,3aS,7aR,E)-1-((S)-1-((R)-3-(difluoromethyl)pyrrolidin-1-yl)propan-2-yl)-7a-methyloctahydro-4H-inden-4-ylidene)ethylidene)-2-methyl-4-methylenecyclohexane-1,3-diol], the concentration for a half-maximal effect (EC50) was 10 to 100 nM.
With `C=C1/C(=C\C=C2/CCC[C@]3(C)[C@@H]([C@H](C)CN4CCCC(O)(CC)C4)CC[C@@H]23)C[C@@H](O)C[C@@H]1O` (single isomer, unassigned) [Compound C042a], the concentration for a half-maximal effect (EC50) is < 1 nM.
Regarding `C=C1[C@H](O)CC(=C/C=C2\CCC[C@]3(C)[C@@H]([C@H](C)CN4CC(F)C4)CC[C@@H]23)C[C@H]1O` [Compound A002, (1R,3R)-5-(2-((1R,3aS,7aR,E)-1-((S)-1-(3-fluoroazetidin-1-yl)propan-2-yl)-7a-methyloctahydro-4H-inden-4-ylidene)ethylidene)-2-methylenecyclohexane-1,3-diol], the 50% effective concentration (EC50) is 10 to 100 nM.
`C=C1C(O)CC(=C/C=C2\CCC[C@]3(C)[C@@H]([C@H](C)CN4CC[C@@](C)(O)C4)CC[C@@H]23)C[C@H]1O` (stereo in doubt) [Compound B076, (1R,3S)-5-(2-((1R,3aS,7aR,E)-1-((S)-1-((R)-3-hydroxy-3-methylpyrrolidin-1-yl)propan-2-yl)-7a-methyloctahydro-4H-inden-4-ylidene)ethylidene)-2-methylenecyclohexane-1,3-diol] came in with an EC50 of 10 to 100 nM.
As for `C=C1[C@H](O)CC(=C/C=C2\CCC[C@]3(C)[C@@H]([C@H](C)CN4CCCC(O)(CC)C4)CC[C@@H]23)C[C@H]1O` (single isomer, unassigned) [Compound C046b], the concentration giving a half-maximal response (EC50) was 1 to 10 nM.
In turn, `C=C1/C(=C\C=C2/CCC[C@]3(C)[C@@H]([C@H](C)CN4CCC[C@H](C(F)F)C4)CC[C@@H]23)C[C@@H](O)C[C@@H]1O` [Compound C048, (1R,3S,Z)-5-(2-((1R,3aS,7aR,E)-1-((S)-1-((S)-3-(difluoromethyl)piperidin-1-yl)propan-2-yl)-7a-methyloctahydro-4H-inden-4-ylidene)ethylidene)-4-methylenecyclohexane-1,3-diol] returned an EC50 of 10 to 100 nM.
As for `C[C@H](CN1CC(CC(F)F)C1)[C@H]1CC[C@H]2/C(=C/C=C3C[C@@H](O)C[C@H](O)C3)CCC[C@]12C` [Compound A021, (1R,3R)-5-(2-((1R,3aS,7aR,E)-1-((S)-1-(3-(2,2-difluoroethyl)azetidin-1-yl)propan-2-yl)-7a-methyloctahydro-4H-inden-4-ylidene)ethylidene)cyclohexane-1,3-diol], the EC50 was in the range of 100 to 1000 nM.
In turn, `C[C@H](CN1CC[C@@H](OC(F)F)C1)[C@H]1CC[C@H]2/C(=C/C=C3C[C@@H](O)C[C@H](O)C3)CCC[C@]12C` [Compound B052, (1R,3R)-5-(2-((1R,3aS,7aR,E)-1-((S)-1-((R)-3-(difluoromethoxy)pyrrolidin-1-yl)propan-2-yl)-7a-methyloctahydro-4H-inden-4-ylidene)ethylidene)cyclohexane-1,3-diol] had a 50% effective concentration (EC50) of 10 to 100 nM.
Take `C=C1[C@H](O)CC(=C/C=C2\CCC[C@]3(C)[C@@H]([C@H](C)CN4CCC(C(F)(F)F)CC4)CC[C@@H]23)C[C@H]1O` [Compound C009, (1R,3R)-5-(2-((1R,3aS,7aR,E)-7a-methyl-1-((S)-1-(4-(trifluoromethyl)piperidin-1-yl)propan-2-yl)octahydro-4H-inden-4-ylidene)ethylidene)-2-methylenecyclohexane-1,3-diol]: the concentration giving a half-maximal response (EC50) was 10 to 100 nM.
For `CCC1(O)CCCN(C[C@@H](C)[C@H]2CC[C@H]3/C(=C/C=C4C[C@@H](O)C[C@H](O)C4)CCC[C@]23C)C1` (single isomer, unassigned) [Compound C044b] the value was 100 to 1000 nM.
As for `C=C1C(O)CC(=C/C=C2\CCC[C@]3(C)[C@@H]([C@H](C)CN4CC[C@@H](OC(F)(F)F)C4)CC[C@@H]23)C[C@H]1O` (stereo in doubt) [Compound B068, (1R,3S)-5-(2-((1R,3aS,7aR,E)-7a-methyl-1-((S)-1-((R)-3-(trifluoromethoxy)pyrrolidin-1-yl)propan-2-yl)octahydro-4H-inden-4-ylidene)ethylidene)-2-methylenecyclohexane-1,3-diol], the figure is 1 to 10 nM; as for `C=C1[C@H](O)CC(=C/C=C2\CCC[C@]3(C)[C@@H]([C@H](C)CN4CC(OCC(F)F)C4)CC[C@@H]23)C[C@H]1O` [Compound A016, (1R,3R)-5-(2-((1R,3aS,7aR,E)-1-((S)-1-(3-(2,2-difluoroethoxy)azetidin-1-yl)propan-2-yl)-7a-methyloctahydro-4H-inden-4-ylidene)ethylidene)-2-methylenecyclohexane-1,3-diol], 10 to 100 nM.
In turn, `C=C1/C(=C\C=C2/CCC[C@]3(C)[C@@H]([C@@H](C)CN4CCCC(O)(C(F)(F)F)C4)CC[C@@H]23)C[C@@H](O)C[C@@H]1O` (single isomer, unassigned) [Compound C033b] gave a concentration giving a half-maximal response (EC50) of 1 to 10 nM.
In the case of `C=C1[C@H](O)CC(=C/C=C2\CCC[C@]3(C)[C@@H]([C@H](C)CN4CCC(C(F)F)CC4)CC[C@@H]23)C[C@H]1O` [Compound C015], the EC50 lay in the range of 10 to 100 nM.
Regarding `C[C@@H](CN1CC[C@H](C(C)(F)F)C1)[C@H]1CC[C@H]2/C(=C/C=C3CC(O)C[C@H](O)C3)CCC[C@]12C` (stereo in doubt) [Compound B101, (1R,3S)-5-(2-((1R,3aS,7aR,E)-1-((R)-1-((S)-3-(1,1-difluoroethyl)pyrrolidin-1-yl)propan-2-yl)-7a-methyloctahydro-4H-inden-4-ylidene)ethylidene)cyclohexane-1,3-diol], the half-maximal effective concentration (EC50) was in the range of 10 to 100 nM.

The values above are taken from patent US20230348376A1 (TEIJIN PHARMA LIMITED, priority 2020, published 2023).
